Measured values published in publication PMC12292521, “Discovery of a Potent Antimicrobial Peptide Through Rational Design: A New Frontier in Pathogen Control” (Biomolecules, 2025).

How the values were obtained:
Enterococcus faecium = experiment: Antimicrobial susceptibility by disk diffusion (EUCAST); assay type: cell-based
Description: (§1) The antimicrobial susceptibility of the four ESKAPE bacteria Acinetobacter baumannii, Enterococcus faecium, P. aeruginosa, and S. aureus, made available by the culture collection of IZSM, was evaluated by the disk diffusion method. Antimicrobials used were different and specific per each bacterium under study. […] Thereby, the diameter of the inhibition zones was measured, and bacteria were classified as resistant or sensitive per antibiotic tested in agreement with the European Committee for Antimicrobial Susceptibility Testing (EUCAST, 2025) breakpoints.

[1] = test system: Staphylococcus aureus (MRSA); experiment: as above; assay type: cell-based
Description: as §1

Structure (SMILES) | Susceptibility of the strain, in words (Enterococcus faecium) | Susceptibility of the strain, in words [1]
CC1(C)S[C@@H]2[C@H](NC(=O)[C@H](N)c3ccccc3)C(=O)N2[C@H]1C(=O)O [Ampicillin] | resistant | 
CO[C@@]1(NC(=O)Cc2cccs2)C(=O)N2C(C(=O)O)=C(COC(N)=O)CS[C@@H]21 [Cefoxitin] |  | important resistance was detected
O=C(O)c1cn(C2CC2)c2cc(N3CCNCC3)c(F)cc2c1=O [Ciprofloxacin] | resistant | important resistance was detected
CC[C@H]1OC(=O)[C@H](C)[C@@H](O[C@H]2C[C@@](C)(OC)[C@@H](O)[C@H](C)O2)[C@H](C)[C@@H](O[C@@H]2O[C@H](C)C[C@H](N(C)C)[C@H]2O)[C@](C)(O)C[C@@H](C)C(=O)[C@H](C)[C@@H](O)[C@]1(C)O [Erythromycin] |  | important resistance was detected
C[C@H]1COc2c(N3CCN(C)CC3)c(F)cc3c(=O)c(C(=O)O)cn1c23 [Levofloxacin] | resistant | important resistance was detected
CN[C@H](CC(C)C)C(=O)N[C@H]1C(=O)N[C@@H](CC(N)=O)C(=O)N[C@H]2C(=O)N[C@H]3C(=O)N[C@H](C(=O)N[C@H](C(=O)O)c4cc(O)cc(O)c4-c4cc3ccc4O)[C@H](O)c3ccc(c(Cl)c3)Oc3cc2cc(c3O[C@@H]2O[C@H](CO)[C@@H](O)[C@H](O)[C@H]2O[C@H]2C[C@](C)(N)[C@H](O)[C@H](C)O2)Oc2ccc(cc2Cl)[C@H]1O [Vancomycin] | resistant | 
